Here are results for 18 molecules from patent US20260138976A1 (Hoffmann-La Roche Inc., priority 2022, published 2026).

SMILES strings stand for the structures.

Experiment [1] relates to primary human T-cells. The experiment is described as follows: IL2 secretion measurements (24 h, CD3-stimulated T-cells, PBS counter screen). Format: cell-based. Particulars: for Emax IL2 (% activation): CD3 condition, normalised to DMSO (neutral) and 20 μM reference compound A1 = 100%; for EC50: Homo sapiens, T-cell, CD3-stimulated primary human T-cells, IL2 secretion, fitted sigmoidal curve, read-out: Tcell IL2 CD3 EC50. In short, it runs like this:
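IL-2 secretion was measured by ProQuantum or ELISA after 24 h culture of expanded human T-cells with compound, on CD3-antibody-coated plates or PBS counter-screen plates. Dosing used 5–6 points from a 20 or 10 μM final top at 3.333-fold steps in 0.2% DMSO. EC50/Emax were scaled between DMSO and 20 μM reference A1.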
For orientation: A counterscreen serves to expose hits that act by an unwanted route or on another target.

In experiment [2] the test system is primary human T-cells. The experiment in a line: Proliferation assay (5 days, CellTiter-Glo, CD3-stimulated T-cells). Format: cell-based. The note with it: for Emax proliferation (% activation): CD3 condition, normalised to DMSO (neutral) and 20 μM reference compound A1 = 100%; for EC50: Homo sapiens, T-cell, 120 h, CD3-stimulated primary human T-cells, 5 days, CellTiter-Glo, fitted sigmoidal curve, read-out: Tcell Proliferation CD3 EC50. In short, it runs like this: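 Proliferation read-out: ATP luminescence (CellTiter-Glo 2.0) at day 5 in expanded primary human T-cells on CD3 antibody-coated plates, with PBS-only plates as a counter screen. Compounds in 5–6 pt series (factor 3.333, top 20 or 10 μM final). Values are normalized to DMSO (neutral) and 20 μM reference A1 (100%), from sigmoidal fits.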
Background: In ATP-based viability assays light output follows the ATP content of the culture.

On to `N[C@H]1CS(=O)(=O)c2cc(F)c(-c3nnc(N4CCOC5(CC5)C4)o3)cc2N(Cc2ccc(-c3noc(C(F)(F)F)n3)cc2)C1=O` [Example 4, (3R)-3-amino-8-fluoro-7-[5-(4-oxa-7-azaspiro[2.5]octan-7-yl)-1,3,4-oxadiazol-2-yl]-1,1-dioxo-5-[[4-[5-(trifluoromethyl)-1,2,4-oxadiazol-3-yl]phenyl]methyl]-2,3-dihydro-1λ^6,5-benzothiazepin-4-one], for which, in experiment [1], the “Emax IL2 (% activation)” value is listed as 220 % activation and the EC50 is 207 nM. Moreover, in experiment [2], the “Emax proliferation (% activation)” value is 207 % activation and the EC50 worked out at 83.1 nM.
For the molecule `CC(C)(C#N)c1nnc(-c2ccc3c(c2)N(Cc2ccc(-c4noc(C(F)(F)F)n4)cc2)C(=O)[C@@H](N)CS3(=O)=O)o1` [Example 38, 2-[5-[(3R)-3-amino-1,1,4-trioxo-5-[[4-[5-(trifluoromethyl)-1,2,4-oxadiazol-3-yl]phenyl]methyl]-2,3-dihydro-1λ^6,5-benzothiazepin-7-yl]-1,3,4-oxadiazol-2-yl]-2-methyl-propanenitrile], in experiment [1], the “Emax IL2 (% activation)” value came out at 311 % activation and the EC50 worked out at 3110 nM. In experiment [2], the “Emax proliferation (% activation)” value was found to be 97 % activation and the EC50 was 640 nM.
Turning to `N[C@H]1CS(=O)(=O)c2ccc(-c3nnc(N4CCC(F)(F)CC4)o3)cc2N(Cc2ccc(-c3ccc(C(F)(F)F)cn3)cc2)C1=O` [Example 160], in experiment [1], the “Emax IL2 (% activation)” value amounted to 55 % activation and the EC50 came to 6430 nM. Further, in experiment [2], the “Emax proliferation (% activation)” value turned out to be 150 % activation and the EC50 was determined as 1300 nM.
Take `CC(C)(C#N)c1nnc(-c2ccc3c(c2)N(Cc2ccc(-c4ncc(C(F)(F)F)cn4)cc2)C(=O)[C@@H](N)CS3(=O)=O)o1` [Example 127, 2-[5-[(3R)-3-amino-1,1,4-trioxo-5-[[4-[5-(trifluoromethyl)pyrimidin-2-yl]phenyl]methyl]-2,3-dihydro-1λ^6,5-benzothiazepin-7-yl]-1,3,4-oxadiazol-2-yl]-2-methyl-propanenitrile]: in experiment [1], the “Emax IL2 (% activation)” value is reported as 112 % activation and the EC50 came out at 4560 nM. In addition, in experiment [2], the “Emax proliferation (% activation)” value was 130 % activation and the EC50 came to 1980 nM.
In the same order, the values of `CC(C)(C#N)c1nnc(-c2ccc3c(c2)N(Cc2ccc(-n4cc(C(F)(F)F)cn4)cc2)C(=O)[C@@H](N)CS3(=O)=O)o1` [Example 102, 2-[5-[(3R)-3-amino-1,1,4-trioxo-5-[[4-[4-(trifluoromethyl)pyrazol-1-yl]phenyl]methyl]-2,3-dihydro-1λ^6,5-benzothiazepin-7-yl]-1,3,4-oxadiazol-2-yl]-2-methyl-propanenitrile] are 143 % activation, 635 nM, 127 % activation and 363 nM.
Turning to `CC(C)(C#N)c1nnc(-c2ccc3c(c2)N(Cc2ccc(-c4cc(OC(F)(F)F)ccn4)cc2)C(=O)[C@@H](N)CS3(=O)=O)o1` [Example 126, 2-[5-[(3R)-3-amino-1,1,4-trioxo-5-[[4-[4-(trifluoromethoxy)-2-pyridyl]phenyl]methyl]-2,3-dihydro-1λ^6,5-benzothiazepin-7-yl]-1,3,4-oxadiazol-2-yl]-2-methyl-propanenitrile], in experiment [1], the “Emax IL2 (% activation)” value was 254 % activation and the EC50 was determined as 2110 nM. Further, in experiment [2], the “Emax proliferation (% activation)” value is on record as 212 % activation and the EC50 was 2490 nM.
Take `CC(C)(C)c1nnc(-c2ccc3c(c2)N(Cc2ccc(-n4nnc(C(F)(F)F)n4)cc2)C(=O)[C@@H](N)CS3(=O)=O)o1` [Example 90, (3R)-3-amino-7-(5-tert-butyl-1,3,4-oxadiazol-2-yl)-1,1-dioxo-5-[[4-[5-(trifluoromethyl)tetrazol-2-yl]phenyl]methyl]-2,3-dihydro-1λ^6,5-benzothiazepin-4-one]: in experiment [1], the “Emax IL2 (% activation)” value came out at 159 % activation and the EC50 was found to be 1010 nM. In experiment [2], the “Emax proliferation (% activation)” value turned out to be 152 % activation and the EC50 came to 344 nM.
With `N#CC1(c2nnc(-c3ccc4c(c3)N(Cc3ccc(-c5ccc(C(F)(F)F)cn5)cc3)C(=O)[C@@H](N)CS4(=O)=O)o2)CC1` [Example 62, 1-[5-[(3R)-3-amino-1,1,4-trioxo-5-[[4-[5-(trifluoromethyl)-2-pyridyl]phenyl]methyl]-2,3-dihydro-1λ^6,5-benzothiazepin-7-yl]-1,3,4-oxadiazol-2-yl]cyclopropane-carbonitrile], in experiment [1], the “Emax IL2 (% activation)” value was 110 % activation and the EC50 was found to be 2110 nM. Also, in experiment [2], the “Emax proliferation (% activation)” value was found to be 101 % activation and the EC50 amounted to 1570 nM.
Take `N[C@H]1CS(=O)(=O)c2ccc(-c3nnc(C4(C5CC5)CCCO4)o3)cc2N(Cc2ccc(-c3noc(C(F)(F)F)n3)cc2)C1=O` (stereo partly drawn) [Example 36, (3R)-3-amino-7-[5-(2-cyclopropyl-tetrahydrofuran-2-yl)-1,3,4-oxadiazol-2-yl]-1,1-dioxo-5-[[4-[5-(trifluoromethyl)-1,2,4-oxadiazol-3-yl]phenyl]methyl]-2,3-dihydro-1λ^6,5-benzothiazepin-4-one]: in experiment [1], the “Emax IL2 (% activation)” value is 223 % activation and the EC50 was 616 nM. In experiment [2], the “Emax proliferation (% activation)” value stood at 108 % activation and the EC50 stood at 91.7 nM.
As to `COc1ccc(-c2ccc(CN3C(=O)[C@@H](N)CS(=O)(=O)c4ccc(-c5nnc(C(C)(C)C#N)o5)cc43)cc2)nc1` [Example 125], in experiment [1], the “Emax IL2 (% activation)” value came out at 97 % activation and the EC50 was determined as 4280 nM. For the same molecule, in experiment [2], the “Emax proliferation (% activation)” value came to 127 % activation and the EC50 is 2310 nM.
For the molecule `NC(c1nnc(-c2ccc3c(c2)N(Cc2ccc(-c4noc(C(F)(F)F)n4)cc2)C(=O)[C@@H](N)CS3(=O)=O)o1)C(F)(F)F` (stereo partly drawn) [Example 94], in experiment [1], the “Emax IL2 (% activation)” value came to 76 % activation and the EC50 was 2660 nM. For the same molecule, in experiment [2], the “Emax proliferation (% activation)” value came out at 42 % activation and the EC50 was above 10000 nM.
Regarding `Cc1cc(C)n(-c2ccc(CN3C(=O)[C@@H](N)CS(=O)(=O)c4ccc(-c5nnc(C(C)(C)C)o5)cc43)cc2)n1` [Example 22, (3R)-3-amino-7-(5-tert-butyl-1,3,4-oxadiazol-2-yl)-5-[[4-(3,5-dimethylpyrazol-1-yl)phenyl]methyl]-1,1-dioxo-2,3-dihydro-1λ^6,5-benzothiazepin-4-one], in experiment [1], the “Emax IL2 (% activation)” value is 75 % activation and the EC50 was determined as 4580 nM. For the same molecule, in experiment [2], the “Emax proliferation (% activation)” value was found to be 69 % activation and the EC50 worked out at 3930 nM.
As for `N[C@H]1CS(=O)(=O)c2cc(F)c(-c3noc(C4(N)COC4)n3)cc2N(Cc2ccc(-c3noc(C(F)(F)F)n3)cc2)C1=O` [Example 9, (3R)-3-amino-7-[5-(3-aminooxetan-3-yl)-1,2,4-oxadiazol-3-yl]-8-fluoro-1,1-dioxo-5-[[4-[5-(trifluoromethyl)-1,2,4-oxadiazol-3-yl]phenyl]methyl]-2,3-dihydro-1λ^6,5-benzothiazepin-4-one], in experiment [1], the “Emax IL2 (% activation)” value stood at 558 % activation and the EC50 was 1100 nM. Also, in experiment [2], the “Emax proliferation (% activation)” value stood at 163 % activation and the EC50 turned out to be 506 nM.
On to `N[C@H]1CS(=O)(=O)c2ccc(-c3nnc(C4(C(F)F)CNC4)o3)cc2N(Cc2ccc(-c3ccc(C(F)(F)F)cc3)cc2)C1=O` [Example 152], for which, in experiment [1], the “Emax IL2 (% activation)” value turned out to be 19 % activation and the EC50 is above 10000 nM. Besides, in experiment [2], the “Emax proliferation (% activation)” value stood at 90 % activation and the EC50 was found to be 1440 nM.
In the case of `CC(C)(C#N)c1nnc(-c2ccc3c(c2)N(Cc2ccc(-c4ccc(C(F)(F)F)cc4)nc2)C(=O)[C@@H](N)CS3(=O)=O)o1` [Example 106], in experiment [1], the “Emax IL2 (% activation)” value was determined as 121 % activation and the EC50 was determined as 3840 nM. Also, in experiment [2], the “Emax proliferation (% activation)” value amounted to 79 % activation and the EC50 was 3790 nM.
`CC(O)(c1nnc(-c2ccc3c(c2)N(Cc2ccc(-c4noc(C(F)(F)F)n4)cc2)C(=O)[C@@H](N)CS3(=O)=O)o1)C(F)(F)F` (stereo partly drawn) [Example 96, (3R)-3-amino-1,1-dioxo-7-[5-(2,2,2-trifluoro-1-hydroxy-1-methyl-ethyl)-1,3,4-oxadiazol-2-yl]-5-[[4-[5-(trifluoromethyl)-1,2,4-oxadiazol-3-yl]phenyl]methyl]-2,3-dihydro-1λ^6,5-benzothiazepin-4-one]: in experiment [1], the “Emax IL2 (% activation)” value was 232 % activation and the EC50 came out at 1360 nM. For the same molecule, in experiment [2], the “Emax proliferation (% activation)” value came out at 103 % activation and the EC50 was found to be 174 nM.
On to `Cc1nc(-c2ccc(CN3C(=O)[C@@H](N)CS(=O)(=O)c4ccc(-c5nnc(C(C)(C)C#N)o5)cc43)cc2)ccc1C(F)(F)F` [Example 114], for which, in experiment [1], the “Emax IL2 (% activation)” value is given as 48 % activation and the EC50 was 1050 nM. Moreover, in experiment [2], the “Emax proliferation (% activation)” value is reported as 78 % activation and the EC50 was 7420 nM.
`N#CC1(c2nc(-c3cc4c(cc3F)S(=O)(=O)C[C@H](N)C(=O)N4Cc3ccc(-c4noc(C(F)(F)F)n4)cc3)no2)CC1` [Example 16, 1-[3-[(3R)-3-amino-8-fluoro-1,1,4-trioxo-5-[[4-[5-(trifluoromethyl)-1,2,4-oxadiazol-3-yl]phenyl]methyl]-2,3-dihydro-1λ^6,5-benzothiazepin-7-yl]-1,2,4-oxadiazol-5-yl]cyclopropanecarbonitrile]: in experiment [1], the “Emax IL2 (% activation)” value turned out to be 315 % activation and the EC50 amounted to 368 nM. For the same molecule, in experiment [2], the “Emax proliferation (% activation)” value was determined as 228 % activation and the EC50 came to 115 nM.
